Results on 4 molecules are retold here after patent publication US20020055171A1, “PREPARATION OF BIOLOGICALLY ACTIVE 3-METHYLENEOXINDOLE AND DEFINITION OF ITS APPLICATION IN STIMULATION OF PLANT GROWTH AND TISSUE REPAIR” (priority 1998, published 2002).

Assay [1] deals with cuttings from 12-day old bean plants. In words: Root formation in bean cuttings planted in treated vermiculite. Type of assay: in vivo. To be noted: for Average dry wt (grams) of root mass (14 days after treatment): 10 cuttings per treatment. The protocol:
Legend to Table I. Ten (10) cuttings were used per treatment. Cuttings were obtained from 12-day old bean plants by excising each plant above the cotyledonery node. The cuttings were planted in vermiculite treated with various concentrations of the indicated compounds. Fourteen days after treatment, the portion of the cutting subtending the root mass was removed and dried for 48 hrs. at 50° C.

In assay [2] the test system is Parenchyma tissue from heads of romaine lettuce. Kind of assay: Formation of callus tissue in lettuce parenchyma sections. To be noted: 7 days at 26 degrees in the dark, average initial weight 0.04 g. Format: cell-based. The source says:
Note: Parenchyma tissue was obtained from heads of romaine lettuce. Cylinders measuring 5 mm in diameter and 20 mm in length were removed with a cork borer from the stalks of lettuce heads. The cylinders were sterilized in a 10% solution of commercial bleach (sodium hypochlorite). Three (3) mm wide circular sections were removed from the sterilized cylinders and 10 sections were placed in petri dishes containing various concentrations of auxins and MO formulated in sterilized agar/mineral salts/kinin media. The sections were incubated at 26 degrees in the dark for seven (7) days. At the end of the incubation period, the callus tissue in each treatment was weighed and the average weight of each section was recorded. The average initial weight of the sections was 0.04 g.

The subject of assay [3] is explants of Nicotiana tobaccum, Ficus benjamina, Kalanchoe, and Hosta. Kind of assay: Stage II (multiplication) micropropagation of explants. Type of assay: cell-based. The text has this: MO produced an equivalent amount of growth at 10^−8 M and maximal growth at 10^−7 M.
Stage II and Stage III micropropagation of various plant species using IAA or MO as auxin source. Explants were placed in various concentrations of sterilized IAA or MO formulated in sterilized agar/mineral salts/kinnin media.

The test system of assay [4] is explants of various plant species. Kind of assay: Stage III (rooting) micropropagation of explants. Format: cell-based. To be noted: Stage III (rooting) medium. The text has this: Stage III micropropagation of various plant species using IAA or MO as auxin source. Explants were placed in various concentrations of sterilized IAA or MO formulated in sterilized agar/mineral salts/kinnin media

In another assay the test system is hardwood trees. In words: Wound healing (callus formation) on sawed-off branches of hardwood trees, lanolin paste. Format: in vivo. To be noted: final concentration 10^−5M, compared with IAA. The source says: Use of pure solutions of MO to stimulate healing in plants by aiding in the formation of callus tissue at the wound site. This would have the prophylactic effect of preventing infection in wounded trees. Application of MO in a solution, gel or lanolin paste preparation induces rapid formation of protective callus tissue. Refer to Table II for data summary. Large branches of hardwood trees were sawed off and treated with either IAA or MO prepared in lanolin paste.

The subject of assay [5] is cuttings from tomatoes, begonias, African violets, roses, soybeans and peas. In words: Root formation in cuttings from various plants. Format: in vivo. The text has this: Use of MO and its solutions prepared by novel methods for stimulation of root formation in plant cuttings and as replacement for IAA or synthetic auxins in plant tissue culture. […] Refer to FIG. 2 for typical response of cuttings to test compounds and Table I for data summary.

Another assay deals with plants. Kind of assay: Physiological (auxin) responses of plants compared with IAA. To be noted: MO obtained from purified 3-Brox. The text has this: It is well known that at suitable concentrations, IAA can stimulate the growth of excised stem segments, promote root development in cuttings, and in combination with another group of plant growth substances known as kinins, can regenerate intact plants from single cells or meristematic tissue.

A further assay concerns Hosta. Kind of assay: Micropropagation of Hosta in Stage I, II and III media. Type of assay: cell-based. The source says: Photographic evidence showing the comparative response of explants to IAA and MO in Stage II and Stage III growth media is available on request. A description of the photos is provided herein.
Where [6] appears, read: Stage II (multiplication) medium.

For the molecule `O=C(O)Cc1c[nH]c2ccccc12` [IAA, Indole-3-acetic acid], the “Emergence of roots (No. of days after treatment)” value in assay [1] (10^−4M) turned out to be 7 days; in assay [1] (10^−5M) it was 7 days; in assay [1] (10^−6M), 9 days. For the same molecule, the “Average dry wt (grams) of root mass (14 days after treatment)” value (“Average dry wt (grams) of root mass” below) was found to be 8 grams in assay [1] (10^−4M), 10 grams in assay [1] (10^−5M) and 7 grams in assay [1] (10^−6M). The “Weight in grams of Callus tissue” value was 0.08 g in assay [2] (10^−4 moles/L); 0.25 g in assay [2] (10^−5 moles/L); 1.2 g in assay [2] (10^−6 moles/L); 0.80 g in assay [2] (10^−7 moles/L); 0.40 g in assay [2] (10^−8 moles/L). The “concentration required to produce maximal growth” value in assay [3] (setting [6]) was 10^−5 M.
In the case of `O=C(O)CCCc1c[nH]c2ccccc12` [IBA, indolebutyric acid], the “Emergence of roots (No. of days after treatment)” value in assay [1] (10^−4M) came to 9 days; in assay [1] (10^−6M) it was 5 days. Further, the “Average dry wt (grams) of root mass” value in assay [1] (10^−4M) is 5 grams; in assay [1] (10^−5M), 7 grams; in assay [1] (10^−6M), 7 grams. Further, the “Weight in grams of Callus tissue” value is 0.05 g in assay [2] (10^−4 moles/L); 0.18 g in assay [2] (10^−5 moles/L); 0.70 g in assay [2] (10^−6 moles/L); 0.55 g in assay [2] (10^−7 moles/L); 0.12 g in assay [2] (10^−8 moles/L).
`C=C1C(=O)Nc2ccccc21` [MO, 3-methyleneoxindole]: the “Emergence of roots (No. of days after treatment)” value in assay [1] (10^−6M) is 4 days; in assay [1] (10^−7M), 4 days; in assay [1] (10^−8M), 6 days. Besides, the “Average dry wt (grams) of root mass” value came to 11 grams in assay [1] (10^−6M), 13 grams in assay [1] (10^−7M) and 10 grams in assay [1] (10^−8M). For the same molecule, the “Weight in grams of Callus tissue” value in assay [2] (10^−4 moles/L) was found to be 0.02 g; in assay [2] (10^−5 moles/L), 0.15 g; in assay [2] (10^−6 moles/L), 1.5 g; in assay [2] (10^−7 moles/L), 1.95 g; in assay [2] (10^−8 moles/L), 1.75 g. The “concentration producing growth equivalent to IAA at its most effective concentration” value in assay [3] (setting [6]) is on record as 10^−8 M. In assay [3] (setting [6]), the “concentration required to produce maximal growth” value is listed as 10^−7 M. Moreover, the “fold more effective than IAA and the synthetic auxins” value in assay [3] (Stage II medium) and in assay [4] was 1,000 fold in each case. Also, the “healing of wound by callus formation” value in the assay with hardwood trees is given as “healed rapidly by forming callus tissue over the wound”. In assay [5], the “root formation compared with IAA, napthaleneacetic acid and indolebutyric acid” value is “more profuse roots in a much shorter time and at significantly lower concentrations”. In addition, the “fold as effective as IAA in eliciting physiological responses” value with plants is listed as 100-1000 fold. The “effectiveness compared with synthetic auxins” value in the assay on Hosta is “far more effective than the synthetic auxins”.
For the molecule `O=C(O)Cc1cccc2ccccc12` [NAA, napthaleneacetic acid], the “Emergence of roots (No. of days after treatment)” value in assay [1] (10^−4M) worked out at 8 days; in assay [1] (10^−5M) it was 9 days; in assay [1] (10^−6M), 8 days. In addition, the “Average dry wt (grams) of root mass” value is listed as 5 grams in assay [1] (10^−4M), 7 grams in assay [1] (10^−5M) and 2 grams in assay [1] (10^−6M). Besides, the “Weight in grams of Callus tissue” value came out at 0.06 g in assay [2] (10^−4 moles/L); 0.15 g in assay [2] (10^−5 moles/L); 0.85 g in assay [2] (10^−6 moles/L); 0.60 g in assay [2] (10^−7 moles/L); 0.20 g in assay [2] (10^−8 moles/L).
